The record followed here is PubChem BioAssay (NCI).

SMILES strings stand for the structures.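 Exposure lasted 48 hours, with cells grown in 96-well plates and compounds tested at five concentrations. TGI marks complete inhibition of growth.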

What all share (test): growth of human tumour cells (NCI), 48 h
For assay [1], the system named is DU-145 prostate.
Assay [2] deals with UACC-257 melanoma.
In assay [3] the test system is COLO 205 colon.
For assay [4], the system named is SW-620 colon.
Assay [5] deals with NCI-H522 lung.
For assay [6], the system named is UO-31 renal.
Assay [7] has as its system RXF 393 renal.
For assay [8], the system named is NCI-H460 lung.
In assay [9] the test system is SNB-19 CNS.
For assay [10], the system named is SK-MEL-5 melanoma.

Turning to `CC(C)(C)c1cc(/C=C(\C#N)C(=O)NCCO)cc(C(C)(C)C)c1O`, the TGI in assay [1] is over 100 µM; in [2] it was 35 µM; in assay [3], 37.2 µM; in assay [4] it was 97 µM; in assay [5] it was 37 µM; in assay [6], 49.7 µM. Besides, the TGI in assay [7] was 57.6 µM; in assay [8], 43.5 µM; in [9] it was over 100 µM; in assay [10] it was 28.1 µM.

As to `CCOC(=O)C(CC#Cc1ccc(C#CCC(NC(C)=O)C(=O)OCC)cc1)NC(C)=O` (stereo not given), the TGI in [1], in assay [2], in assay [3], in assay [4], in assay [5] and in assay [6] was over 100 µM in each case. The TGI in assay [7], in [8], in assay [9] and in assay [10] was over 100 µM each time.

As for `O=c1c2ccccc2nc(Nc2cccc(Cl)c2)n1/N=C/C=C/c1ccccc1`, the TGI in assay [1], in assay [2], in assay [3], in [4], in assay [5] and in assay [6] was over 100 µM each time. For the same molecule, the TGI in assay [7], in assay [8], in [9] and in [10] was over 100 µM each time.

Regarding `O=C1C=C(c2ccccc2)O/C1=C/C(=O)c1ccc(Cl)cc1`, the TGI in assay [1] was over 100 µM; in assay [2], 35.6 µM; in assay [3], 30.1 µM; in assay [4], 27.1 µM; in [5] it was 27.7 µM; in assay [6], 38.9 µM. Besides, the TGI was 34.7 µM in [7], 41.5 µM in assay [8], over 100 µM in [9] and 44.2 µM in [10].

With `CC(=S)N=Cc1c(O)cc(C)oc1=O`, the TGI in [1], in assay [2], in assay [3], in assay [4], in assay [5] and in assay [6] was over 100 µM each time. In addition, the TGI in [7], in assay [8], in assay [9] and in assay [10] was over 100 µM each time.

Take `CCNC(=O)C1CCCN1C(=O)C(CCCN=C(N)N)NC(=O)C(CC(C)C)NC(=O)C(Cc1c[nH]c2ccccc12)NC(=O)C(Cc1ccc(O)cc1)NC(=O)C(CO)NC(=O)C(Cc1c[nH]c2ccccc12)NC(=O)C(Cc1cnc[nH]1)NC(=O)C1CCC(=O)N1` (stereo not given): the TGI in assay [1], in assay [2], in [3], in [4], in assay [5] and in assay [6] was over 100 µM each time. Also, the TGI in [7], in assay [8], in assay [9] and in assay [10] was over 100 µM throughout.

Consider `CSc1nc2c(c(=O)n1C)N=C(c1ccccc1)[C@H](C(CC(=O)c1ccccc1)c1ccccc1)C(c1ccccc1)N2` (stereo not given in full), for which the TGI in assay [1], in [2], in assay [3], in [4], in [5] and in assay [6] was over 100 µM in each case. Besides, the TGI in assay [7], in assay [8], in assay [9] and in assay [10] was over 100 µM each time.

On to `Clc1ccc(OCc2nnc(CCCCCCCCc3nnc(COc4ccc(Cl)cc4)n3Nc3ccccc3)n2Nc2ccccc2)cc1`, for which the TGI in assay [1] was over 80.9 µM; in [2] it was over 100 µM; in assay [3] it was 0.894 µM; in [4], over 100 µM; in assay [5], 34.5 µM; in assay [6], over 95.1 µM. Also, the TGI was 70.8 µM in assay [7], over 100 µM in [8], over 100 µM in [9] and 2.72 µM in [10].

Regarding `C=c1c(OC)c(OC)c(O)c2c1=c1cc([N+](=O)[O-])cc(OC)c1=N2`, the TGI in assay [1], in assay [2], in assay [3], in [4], in assay [5] and in assay [6] was over 100 µM each time. Also, the TGI in [7], in assay [8], in assay [9] and in assay [10] was over 100 µM in each case.

As to `CCOC(=O)C(NC(=O)CC(C)C)(N1CCN(c2cc3c(cc2F)c(=O)c(C(=O)O)cn3C2CC2)CC1)C(F)(F)F` (stereo not given), the TGI in assay [1] was over 100 µM; in assay [2] it was 57 µM; in assay [3], 30.3 µM; in [4] it was 74.1 µM; in assay [5] it was 11.9 µM; in [6] it was 49.6 µM. In addition, the TGI in assay [7] was 35.8 µM; in [8], over 100 µM; in [9], over 100 µM; in [10], 25.4 µM.

Regarding `C=CCOCCCCC(C(C)=O)C(=O)OC` (stereo not given), the TGI in assay [1], in [2], in assay [3], in assay [4], in [5] and in [6] was over 100 µM in each case. For the same molecule, the TGI in assay [7], in [8], in assay [9] and in assay [10] was over 100 µM in each case.

Consider `COC(=O)Cc1c([C@H]2[C@H](CC(=O)OC)c3ccccc3N2C(C)=O)[nH]c2ccccc12`, for which the TGI in assay [1], in assay [2], in assay [3], in assay [4], in [5] and in assay [6] was over 100 µM throughout. The TGI in assay [7], in assay [8], in [9] and in assay [10] was over 100 µM each time.

Consider `NC(N)=NS(=O)(=O)c1ccc(NC(=O)c2ccc3nc4ccccc4c(Nc4ccc(S(=O)(=O)N=C(N)N)cc4)c3c2)cc1`, for which the TGI in assay [1], in assay [2], in assay [3], in [4], in assay [5] and in assay [6] was over 100 µM each time. Further, the TGI in assay [7], in assay [8], in assay [9] and in assay [10] was over 100 µM in each case.

Take `CCN1CCC(O)(C(C(=O)O)c2ccccc2)CC1` (stereo not given): the TGI in assay [1], in assay [2], in assay [3], in [4], in assay [5] and in assay [6] was over 100 µM each time. Moreover, the TGI in [7], in [8], in assay [9] and in assay [10] was over 100 µM in each case.

For the molecule `Cc1cn([C@@H]2C[C@H]2CO)c(=O)[nH]c1=O`, the TGI in assay [1], in assay [2], in [3], in assay [4], in assay [5] and in [6] was over 100 µM throughout. Further, the TGI in assay [7], in assay [8], in assay [9] and in assay [10] was over 100 µM throughout.

Regarding `COc1cc(/C=C\C(=O)O)ccc1OCc1ccccc1`, the TGI in assay [1], in assay [2], in assay [3], in assay [4], in [5] and in assay [6] was over 100 µM in each case. Also, the TGI in [7], in [8], in [9] and in assay [10] was over 100 µM throughout.

With `O=c1c(-c2ccc(Cl)cc2)nnc2n(Cc3ccccc3)c3ccccc3n12`, the TGI in assay [1], in assay [2], in assay [3], in assay [4], in assay [5] and in [6] was over 100 µM each time. Moreover, the TGI in assay [7] is 40.2 µM; in [8], over 100 µM; in [9], 72 µM; in assay [10], over 100 µM.

On to `CC1(CNCc2ccccc2)CC(CCc2ccccc2)N(C(=O)c2ccc([N+](=O)[O-])cc2)C1Cc1ccc(O)cc1` (stereo not given), for which the TGI amounted to 28.5 µM in assay [1]; 27 µM in assay [2]; 19.4 µM in assay [3]; 86 µM in assay [4]; 22.3 µM in assay [5]; 23.3 µM in assay [6]. Further, the TGI in assay [7] was determined as 17.4 µM; in [8] it was 30.8 µM; in [9] it was 29.1 µM; in [10] it was 17.3 µM.

As to `C=C1C(=O)O[C@@]23C1CC[C@@H](C)C2CC[C@@]1(C)OC31` (stereo not given in full), the TGI in assay [1] was 35.5 µM; in assay [2] it was 24.4 µM; in assay [3], 3.68 µM; in [4] it was 37.5 µM; in [5], 20.2 µM; in [6], 18.5 µM. In addition, the TGI in assay [7] is 39.9 µM; in assay [8] it was 35.2 µM; in [9], 47.4 µM; in [10], 12.3 µM.

With `O=C(Nc1ccccc1C(=O)NCCCO)/C(=C/c1ccccc1O)NC(=O)c1ccccc1`, the TGI in assay [1] was over 100 µM; in assay [2] it was over 100 µM; in assay [3] it was over 100 µM; in [4], over 100 µM; in assay [5], over 100 µM; in assay [6], over 31.6 µM. In addition, the TGI in assay [7] was over 86.8 µM; in assay [8], over 100 µM; in [9], 40.8 µM; in assay [10], over 100 µM.

As to `c1ccc2c3c(c(N4CCOCC4)nc2c1)CCCC3`, the TGI was over 100 µM in assay [1]; over 100 µM in assay [2]; 46.5 µM in assay [3]; over 100 µM in [4]; over 100 µM in assay [5]; over 100 µM in assay [6]. For the same molecule, the TGI in [7] was 46.8 µM; in [8] it was over 100 µM; in assay [9] it was over 100 µM; in [10], 54.7 µM.
